In assay [1] the target is Serine/threonine-protein kinase Nek7 (Homo sapiens) (UniProt Q8TDX7). Nature of the assay: Selectivity interaction (SelectScreen profiling (Invitrogen)) EUB0000607a NEK7. The note with it: at 2 µM.
Assay [2] concerns the target Protein kinase C gamma type (Homo sapiens) (UniProt P05129). Nature of the assay: Selectivity interaction (SelectScreen profiling (Invitrogen)) EUB0000607a PRKCG. The note with it: at 2 µM.
Assay [3] concerns the target T1, Dual specificity mitogen-activated protein kinase kinase 7 (Homo sapiens) (UniProt O14733).
T1 sequence (whole entry): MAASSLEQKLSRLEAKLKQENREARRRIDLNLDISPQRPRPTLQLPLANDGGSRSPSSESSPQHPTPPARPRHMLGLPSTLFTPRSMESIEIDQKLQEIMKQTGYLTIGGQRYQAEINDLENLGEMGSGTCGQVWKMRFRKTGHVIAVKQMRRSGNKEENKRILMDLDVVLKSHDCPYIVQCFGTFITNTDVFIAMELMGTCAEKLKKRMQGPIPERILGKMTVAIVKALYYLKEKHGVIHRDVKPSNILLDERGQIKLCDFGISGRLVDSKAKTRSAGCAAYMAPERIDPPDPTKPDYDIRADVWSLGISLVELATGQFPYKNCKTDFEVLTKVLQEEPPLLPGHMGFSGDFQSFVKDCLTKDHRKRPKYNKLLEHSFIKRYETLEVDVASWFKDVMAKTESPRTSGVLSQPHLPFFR
Nature of the assay: Selectivity interaction (KinomeScan (DiscoverX)) EUB0001619a MAP2K7. The settings on record: at 1 µM.

For assay [4], the target named is T2, Bone morphogenetic protein receptor type-2 (Homo sapiens) (UniProt Q13873).
T2 sequence (whole entry): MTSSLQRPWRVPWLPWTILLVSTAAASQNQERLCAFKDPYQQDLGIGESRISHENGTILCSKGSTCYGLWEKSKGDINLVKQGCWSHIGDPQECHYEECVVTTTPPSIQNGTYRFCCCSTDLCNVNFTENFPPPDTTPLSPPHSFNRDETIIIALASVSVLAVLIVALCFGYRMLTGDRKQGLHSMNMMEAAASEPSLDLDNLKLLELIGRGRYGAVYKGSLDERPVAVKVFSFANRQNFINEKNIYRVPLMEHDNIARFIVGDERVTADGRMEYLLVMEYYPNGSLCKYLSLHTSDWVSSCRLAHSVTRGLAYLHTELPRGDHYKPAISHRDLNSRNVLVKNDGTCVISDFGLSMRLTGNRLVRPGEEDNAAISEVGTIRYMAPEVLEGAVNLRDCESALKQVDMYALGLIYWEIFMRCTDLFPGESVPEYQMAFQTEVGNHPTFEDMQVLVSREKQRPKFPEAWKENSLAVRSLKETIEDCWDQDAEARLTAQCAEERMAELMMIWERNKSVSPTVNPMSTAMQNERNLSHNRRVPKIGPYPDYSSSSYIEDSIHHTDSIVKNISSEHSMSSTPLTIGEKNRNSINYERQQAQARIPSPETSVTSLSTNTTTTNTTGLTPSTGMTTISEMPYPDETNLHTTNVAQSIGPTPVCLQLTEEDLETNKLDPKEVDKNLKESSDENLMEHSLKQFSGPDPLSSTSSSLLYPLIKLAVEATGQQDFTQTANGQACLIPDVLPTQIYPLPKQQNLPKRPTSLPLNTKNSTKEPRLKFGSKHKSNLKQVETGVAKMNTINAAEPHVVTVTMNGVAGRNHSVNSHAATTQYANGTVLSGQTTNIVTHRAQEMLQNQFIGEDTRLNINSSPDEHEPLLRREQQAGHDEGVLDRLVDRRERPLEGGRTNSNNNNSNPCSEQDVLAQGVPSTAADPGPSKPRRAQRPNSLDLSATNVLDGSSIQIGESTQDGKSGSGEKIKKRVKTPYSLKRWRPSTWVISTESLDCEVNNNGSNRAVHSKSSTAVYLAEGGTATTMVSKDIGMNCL
The settings on record: at 10 µM.

Assay [5] addresses T3, Serine/threonine-protein kinase 17A (Homo sapiens) (UniProt Q9UEE5).
T3 sequence (whole entry): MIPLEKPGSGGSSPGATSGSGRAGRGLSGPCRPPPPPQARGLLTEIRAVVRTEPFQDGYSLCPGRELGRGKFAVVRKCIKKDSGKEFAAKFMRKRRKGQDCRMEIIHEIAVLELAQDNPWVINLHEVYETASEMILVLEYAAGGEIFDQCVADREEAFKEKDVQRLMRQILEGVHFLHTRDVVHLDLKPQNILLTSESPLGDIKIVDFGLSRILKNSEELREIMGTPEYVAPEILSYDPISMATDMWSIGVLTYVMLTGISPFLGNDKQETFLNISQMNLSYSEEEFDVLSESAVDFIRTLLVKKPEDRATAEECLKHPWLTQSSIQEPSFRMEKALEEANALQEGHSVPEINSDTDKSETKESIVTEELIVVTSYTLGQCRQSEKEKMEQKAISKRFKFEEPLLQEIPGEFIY
The assay is described as follows: Selectivity interaction (ProQinase) EUB0000171b STK17A.

Assay [6] addresses T4, Mitogen-activated protein kinase kinase kinase kinase 2 (Homo sapiens) (UniProt Q12851).
T4 sequence (whole entry): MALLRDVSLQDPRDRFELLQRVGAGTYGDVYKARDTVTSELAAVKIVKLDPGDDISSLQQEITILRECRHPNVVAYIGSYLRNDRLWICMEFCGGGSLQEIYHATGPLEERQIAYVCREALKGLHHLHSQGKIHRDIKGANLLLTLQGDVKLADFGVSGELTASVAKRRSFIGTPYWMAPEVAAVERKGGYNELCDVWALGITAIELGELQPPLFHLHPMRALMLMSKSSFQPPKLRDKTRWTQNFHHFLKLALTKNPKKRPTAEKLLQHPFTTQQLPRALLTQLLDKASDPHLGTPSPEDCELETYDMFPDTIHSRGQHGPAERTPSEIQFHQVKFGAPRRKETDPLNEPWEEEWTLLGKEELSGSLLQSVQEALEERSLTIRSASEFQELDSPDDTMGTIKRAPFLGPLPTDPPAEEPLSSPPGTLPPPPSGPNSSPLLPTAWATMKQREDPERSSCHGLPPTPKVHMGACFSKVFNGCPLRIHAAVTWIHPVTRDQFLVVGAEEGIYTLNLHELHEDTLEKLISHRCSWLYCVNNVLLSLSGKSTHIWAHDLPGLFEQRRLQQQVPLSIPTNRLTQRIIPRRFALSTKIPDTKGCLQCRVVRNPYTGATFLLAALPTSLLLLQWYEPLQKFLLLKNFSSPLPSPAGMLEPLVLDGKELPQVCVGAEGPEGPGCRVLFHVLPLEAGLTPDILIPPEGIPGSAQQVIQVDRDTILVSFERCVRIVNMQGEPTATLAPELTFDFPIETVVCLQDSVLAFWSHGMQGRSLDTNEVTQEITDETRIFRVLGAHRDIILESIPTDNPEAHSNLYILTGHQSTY
The assay is described as follows: Selectivity interaction (KinomeScan (DiscoverX)) EUB0000595a MAP4K2. The note with it: at 10 µM.

For assay [7], the target named is Tyrosine-protein kinase receptor Tie-1 (Homo sapiens) (UniProt P35590). The settings on record: at 10 µM.
Sequence of Tyrosine-protein kinase receptor Tie-1 (Homo sapiens) (P35590 whole entry): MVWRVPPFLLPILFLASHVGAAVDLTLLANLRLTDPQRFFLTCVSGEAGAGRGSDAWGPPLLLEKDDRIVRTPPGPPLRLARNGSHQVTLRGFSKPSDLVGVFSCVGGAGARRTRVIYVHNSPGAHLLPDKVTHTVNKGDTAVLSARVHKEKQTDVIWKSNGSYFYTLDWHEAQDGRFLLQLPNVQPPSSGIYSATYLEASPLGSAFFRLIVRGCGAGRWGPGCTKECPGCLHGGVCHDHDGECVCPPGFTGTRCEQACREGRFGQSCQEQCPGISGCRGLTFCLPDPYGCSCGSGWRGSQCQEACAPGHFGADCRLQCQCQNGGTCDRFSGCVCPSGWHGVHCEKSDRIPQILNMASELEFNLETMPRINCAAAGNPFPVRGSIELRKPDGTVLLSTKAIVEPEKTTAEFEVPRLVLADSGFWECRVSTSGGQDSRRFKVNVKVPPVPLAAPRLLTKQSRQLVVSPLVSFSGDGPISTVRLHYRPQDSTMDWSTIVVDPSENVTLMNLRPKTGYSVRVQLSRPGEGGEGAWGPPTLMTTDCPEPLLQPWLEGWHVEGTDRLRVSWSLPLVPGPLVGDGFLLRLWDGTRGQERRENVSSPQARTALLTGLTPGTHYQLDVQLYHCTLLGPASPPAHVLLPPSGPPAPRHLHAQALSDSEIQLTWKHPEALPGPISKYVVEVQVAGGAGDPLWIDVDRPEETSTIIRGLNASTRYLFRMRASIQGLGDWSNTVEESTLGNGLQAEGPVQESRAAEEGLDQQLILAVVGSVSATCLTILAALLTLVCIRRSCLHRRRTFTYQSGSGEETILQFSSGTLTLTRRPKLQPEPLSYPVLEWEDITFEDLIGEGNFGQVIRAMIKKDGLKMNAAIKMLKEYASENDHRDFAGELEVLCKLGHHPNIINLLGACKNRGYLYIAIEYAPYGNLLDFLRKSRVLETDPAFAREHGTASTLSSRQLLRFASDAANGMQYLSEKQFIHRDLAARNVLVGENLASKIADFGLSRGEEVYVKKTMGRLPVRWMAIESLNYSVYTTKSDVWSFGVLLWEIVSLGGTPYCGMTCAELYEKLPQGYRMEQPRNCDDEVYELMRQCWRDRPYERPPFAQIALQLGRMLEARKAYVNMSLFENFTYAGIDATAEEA

The text below walks through data of ChEMBL document CHEMBL5465560, “Selectivity Literature for EUbOPEN Chemogenomic Library” (2024).

Sequence of Serine/threonine-protein kinase Nek7 (Homo sapiens) (Q8TDX7 whole entry, looked up): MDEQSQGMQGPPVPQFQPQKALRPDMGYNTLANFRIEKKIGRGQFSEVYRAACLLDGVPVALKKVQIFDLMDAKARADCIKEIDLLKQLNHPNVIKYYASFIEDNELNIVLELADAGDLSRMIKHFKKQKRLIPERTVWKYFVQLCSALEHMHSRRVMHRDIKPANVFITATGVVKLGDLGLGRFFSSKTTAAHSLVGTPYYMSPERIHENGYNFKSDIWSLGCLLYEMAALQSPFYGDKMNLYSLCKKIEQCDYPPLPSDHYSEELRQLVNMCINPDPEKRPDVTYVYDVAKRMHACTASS

As for `CNC(=O)Nc1ccc(-c2nc(N3CC4CCC(C3)O4)c3cnn(C4CCC5(CC4)OCCO5)c3n2)cc1`, the % of inhibition was -3% in assay [1] and 11% in assay [2]. Regarding `N#Cc1cccc(-c2c[nH]c3ncnc(N4CCOCC4)c23)c1`, the % of control in assay [3] came out at 80%. `CCN(CC)CCCCNc1ncc2cc(-c3cc(OC)cc(OC)c3)c(NC(=O)NC(C)(C)C)nc2n1` registered a % of control in assay [4] of 100%.

For `C=CC(=O)Nc1cccc(C(=O)Nc2ccc(Nc3cc(-c4[nH]c(SC)nc4C)ccn3)cc2)c1`, the values for the % of control in assay [5] (at 1 µM) and in assay [5] (at 5 µM) were 78% and 35%, respectively.

`COCC(=O)NC/C=C/c1ccc2ncnc(Nc3ccc(Oc4ccc(C)nc4)c(C)c3)c2c1` [CP-724714]: the % of control in assay [6] and in assay [7] was 100% each time.
